Data taken from ChEMBL document CHEMBL3045014, “Synthesis and biological activity of novel anti-juvenile hormone agents” (J Pestic Sci, 2008).
Active and inactive are the calls of the source. The calls are words filed in the database; no cut-off is given here.

Tests used:
Type in all cases: functional, organism-based
[1] = tested on: Bombyx mori; assay: Induction of precocious metamorphosis in Bombyx mori
[2] = tested on: Bombyx mori; assay: Induction of precocious metamorphosis in newly-molted fourth-instar larvae of Bombyx mori
[3] = tested on: Bombyx mori; assay: Induction of precocious metamorphosis in fourth-instar larvae of Bombyx mori in presence of JH agonist methoprene
[4] = tested on: Bombyx mori; assay: Induction of precocious metamorphosis in fourth-instar larvae of Bombyx mori in presence of 20-hydroxyecdysone
[5] = tested on: Bombyx mori; assay: Induction of precocious metamorphosis in fourth-instar larvae of Bombyx mori
[6] = tested on: Bombyx mori; assay: Induction of precocious metamorphosis in 24-hr old 3rd-instar larvae of Bombyx mori
[7] = tested on: Bombyx mori; assay: Induction of precocious metamorphosis in newly-molted fourth-instar larvae of Bombyx mori at 1 ug
[8] = tested on: Bombyx mori; assay: Induction of precocious metamorphosis in fourth-instar larvae of Bombyx mori at 40 ug
[9] = tested on: Bombyx mori; assay: Induction of precocious metamorphosis in fourth-instar larvae of Bombyx mori at 0.1 ug
[10] = tested on: Bombyx mori; assay: Induction of precocious metamorphosis in fourth-instar larvae of Bombyx mori at 10 ug

SMILES	Activity [1]	Activity [2]	Activity [7]	also measured
CCOC(=O)c1ccc(OCC(CC)Oc2ccc(C)nc2)cc1 (stereo not given)	Active	–	–	–
CCCCC(COc1ccc(C(=O)OCC)cc1)Cc1ccccc1 (racemic)	Active	Dose-dependent effect	Active	Activity [3]: inactive; Activity [4]: Active; Activity [5]: Active; Activity [6]: inactive
CCCCC(COc1ccc(C(=O)OCC)cc1)Oc1ccccc1 (stereo not given)	Active	Active	–	–
CCCCCC(COc1ccc(C(=O)OCC)cc1)Cc1ccccc1 (stereo not given)	Active	–	–	–
CCCC[C@H](COc1ccc(C(=O)OCC)cc1)Cc1ccccc1	–	–	Active	Activity [8]: inactive; Activity [9]: Active; Activity [10]: inactive
CCOC(=O)c1ccc(OCC(CC)OC(=O)C(C)(C)C)cc1 (stereo not given)	–	inactive	–	Activity [5]: Active; Activity [6]: inactive
CCOC(=O)c1ccc(OCC(Oc2ccc(C)nc2)C(C)(C)C)cc1 (stereo not given)	Active	–	–	–
CCCCC(COc1ccc(C(=O)OCC)cc1)Oc1ccc(C)nc1 (stereo not given)	Active	Active	–	–
CCCC[C@@H](COc1ccc(C(=O)OCC)cc1)Cc1ccccc1	–	–	Active	Activity [8]: inactive; Activity [9]: Active; Activity [10]: inactive
